Data published in article PMC12194779, “Synergistic Insecticidal Activity of Plant Volatile Compounds: Impact on Neurotransmission and Detoxification Enzymes in Sitophilus zeamais” (Insects, 2025).
Values after ≈ are worked out from the molar mass of the structure shown. Values joined by “and” are separate entries in the source; they are usually repeats but may differ in a detail not shown here. Equal values may be shown once. Read-outs that look alike come from different tables or passages of the source.

Legend:
[1] = test system: Sitophilus zeamais; format: in vivo; settings: for Contact Toxicity LD50i (LC-95%): mixtures and their components (Table 3); for Contact Toxicity LD90 (95% FL) / Contact Toxicity LD50 (95% FL): topical, 24 h after exposure
Procedure: (§1) The insects used in this study were Sitophilus zeamais Motschulsky (Coleoptera: Curculionidae), identified by the Instituto Colombiano Agropecuario (ICA) under report number R3823M0000425. […] The adult insects used in all the experiments were 6 to 10 days post-emergence.
Groups of 10 insects, previously placed in Petri dishes, were immobilized by exposure to low temperatures (0 °C). An initial dose of 50.0 µg per adult was applied topically to the dorsal thorax of each insect using aliquots of 0.20 µL from 0.25 mg/µL solutions in n-hexane. […] All treatments were performed in two independent experiments, each with four replicates. Insect mortality was assessed after 24 h, and mortality percentages were calculated using Abbott’s correction formula (Equation (1)).
(§2) Mixtures predicted by the RSM were prepared based on mole fractions. […] Four replicates were performed for each treatment and control across two independent experimental runs.
(§3) Dose reduction indices (DRIs) were also calculated to estimate how much the dose of each compound in a synergistic combination could be reduced to achieve a 50% effect (Equation (4)). DRIs were interpreted as favorable when >1, neutral at 1, and unfavorable when <1.

[2] = parameters: method as in doi:10.1016/B978-0-12-819092-0.00021-2; settings: cited from earlier work
[3] = test system: AChE of S. zeamais; test: AChE activity assay (modified Ellman) with S. zeamais protein extract; format: biochemical, Sitophilus zeamais; parameters: key to AChE Effect Inhibitor Type: C: competitive inhibitor; NC: non-competitive inhibitor
Procedure: The compounds and mixtures evaluated in the in vitro assays were prepared in the same buffer supplemented with 0.5% (v/v) Triton X-100 (Sigma-Aldrich®, Saint Louis, MO, USA).
The supernatant was filtered, and 20 mM benzamidine was added. The extracts were stored in 5 mL aliquots at −20 °C. Preliminary assays were performed to quantify the specific activity of AChE (0.02–1.00 U/mL), GST (0.1–0.8 U/mL), and CAT (0.1–25 U/mL), and to optimize assay conditions (enzyme dilution: 1/8 to 1% v/v; substrate concentrations: 2 × km or within assay linearity).
Then, 50 µL of DTNB and 50 µL of ATChI were added. […] Inhibition percentages were calculated using Equation (5).

[4] = test system: glutathione S-transferase (GST) activity in S. zeamais; test: GST activity assay (modified Habig) with S. zeamais protein extract; format: biochemical, Sitophilus zeamais; settings: 120 mg/L
Procedure: (§4) Enzymatic assays were performed in the assay buffer, consisting of 0.1 M potassium phosphate buffer (pH 7.2). The compounds and mixtures evaluated in the in vitro assays were prepared in the same buffer supplemented with 0.5% (v/v) Triton X-100 (Sigma-Aldrich®, Saint Louis, MO, USA).
(§5) A modified version of the method described by Oviedo et al. was used. Adults of S. zeamais (8 g; ~3125 insects) were frozen in liquid nitrogen, homogenized in a 1:10 ratio with assay buffer, and centrifuged at 13,000× g for 60 min at 4 °C. The supernatant was filtered, and 20 mM benzamidine was added. The extracts were stored in 5 mL aliquots at −20 °C. Preliminary assays were performed to quantify the specific activity of AChE (0.02–1.00 U/mL), GST (0.1–0.8 U/mL), and CAT (0.1–25 U/mL), and to optimize assay conditions (enzyme dilution: 1/8 to 1% v/v; substrate concentrations: 2 × km or within assay linearity). Each experiment was performed independently three times, with three technical replicates per experiment.
A modified version of Habig’s method was used. The protein extract (50 µL; 0.59 U/mL) was incubated with 50 µL of the compound or mixture (120 mg/L), followed by 50 µL each of CDNB and reduced glutathione (GSH). Kinetic absorbance was measured at 340 nm for 8 min. Blanks (without substrate) and quercetin (positive control) were included. Inhibition (%) was calculated using Equation (5), and treatment differences were evaluated via parametric ANOVA (α = 0.05) in GraphPad Prism 8.0.2 [42, 43]. Each experiment was performed independently three times, with three technical replicates per experiment.(5) % Inhibition=1−Am−AB/AC ×100 where Am is the absorbance of the sample, AB is the absorbance of the blank, and AC is the absorbance of the negative control.

[5] = test system: catalase (CAT) activity in S. zeamais; test: CAT activity assay (adapted Sinha) with S. zeamais protein extract; format: biochemical, Sitophilus zeamais; settings: 120 mg/L
Procedure: as §4, §5
Sinha’s method was adapted. In Eppendorf tubes, 100 µL of protein extract (24.77 U/mL) was mixed with 100 µL of the compound or mixture (120 mg/L) and incubated at 37 °C for 15 min. Then, 200 µL of H2O2 was added and shaken for 2.5 min. The reaction was stopped by adding 600 µL of K2Cr2O7, followed by incubation at 100 °C for 10 min. A 200 µL aliquot was transferred to a 96-well plate, and absorbance was recorded at 570 nm. Blanks and sodium azide (positive control) were used. The percentage of inhibition was calculated using Equation (5). Differences among treatments were analyzed via ANOVA (α = 0.05) in GraphPad Prism. Each experiment was performed independently three times, with three technical replicates per experiment.

[6] = test system: Sitophilus zeamais; test: whole plant or invertebrate; settings: for EC90: read-out: Fumigant Toxicity LC90 (95% FL)
Procedure: as §1
The treated disks were affixed to the inner surface of the screw cap of 22 mL glass vials. […] All treatments were performed in two independent experiments, each with five replicates.
as §2
as §3, with “<1. Values above the log DRI = 0 line indicate favorable dose reductions.(4) (IRD)i=CL50i(fax)i/(1−(fax)i)^1/mi/(D)i” for “<1.”

[7] = test system: S. zeamais; parameters: method as in PMID 21173724, PMID 22236213; settings: cited from earlier work
[8] = test system: S. zeamais; settings: cited from earlier work; for LC50 in vapor-phase assays without physical barriers: previous reports
[9] = Sitophilus zeamais, 24 h, read-out: Fumigant Toxicity LC50i (LC-95%)
[10] = Sitophilus zeamais, in Homo sapiens, 24 h, read-out: Fumigant Toxicity LC50 (95% FL)
[11] = Sitophilus zeamais, in Homo sapiens, 24 h
[12] = Sitophilus zeamais, read-out: LC50 values, fumigant activity (Figure 3)

CC(C)=C1CC[C@@H](C)CC1=O [Compound C1, R-(+)-Pulegone]
Contact Toxicity LD50i (LC-95%) [1]: 4.85 µg/Adult | Contact Toxicity LD90 (95% FL) [1]: 7.40 (6.79–8.28) µg/Adult | LD50 (i.p.) ([2]; i.p.): 73 mg/kg | LD50 (i.v.) ([2]; i.v.): 80 mg/kg | oral LD50 ([2]; oral): 810 mg/kg | AChE inhibition ([3]; 120 mg/L): 33.52% | GST Inhibition λ340 (%) [4]: 2.4% | CAT Inhibition λ570 nm (%) [5]: 4.3% | LC50 [6, 9]: 0.58 µg/mL | LC50 [6, 10]: 0.58 µg/mL and 3.81 µM | EC90 [6, 11]: 0.92 µg/mL and 6.07 µM

CC(C)=C1CC[C@H](C)CC1=O [Compound C2, S-(−)-Pulegone]
Contact Toxicity LD50i (LC-95%) [1]: 7.44 µg/Adult | Contact Toxicity LD90 (95% FL) [1]: 9.64 (9.05–10.54) µg/Adult | AChE inhibition type (Lineweaver–Burk plots), in words [3]: competitive inhibition | AChE inhibition, times higher than the R-enantiomer (C1) [3]: 2.3 times | AChE Effect Inhibitor Type ([3]; Lineweaver–Burk): C | AChE Effect IC50 ± SD ([3]; S. zeamais protein extract): 36.60 ± 3.29 mg/L | Ki ([3]; S. zeamais protein extract, read-out: AChE Effect ki ± SD (inhibitory constant)): 50.3 ± 0.74 µM | GST Inhibition λ340 (%) [4]: 4.3% | CAT Inhibition λ570 nm (%) [5]: 2.4% | LC50 [6, 9]: 0.97 µg/mL | LC50 [6, 10]: 0.97 µg/mL and 6.37 µM | EC90 [6, 11]: 1.68 µg/mL and 11.1 µM

C=C(C)[C@@H]1CC=C(C)C(=O)C1 [Compound C4, R-(−)-Carvone]
Contact LD50 previously reported for 7-day assays [7]: 2.79 µg/adult | Contact Toxicity LD50 (95% FL) [1]: 16.89 (14.56–19.35) µg/Adult | Contact Toxicity LD90 (95% FL) [1]: 28.45 (24.99–34.24) µg/Adult | Fumigant LC50 reported in 7-day exposure assays [8]: 2.76 mg/L | LC50 [6, 10]: 1.42 µg/mL and 9.48 µM | EC90 [6, 11]: 2.17 µg/mL and 14.4 µM | LC50 [6, 12]: 1.42 µg/mL

CC1=CC[C@@](O)(C(C)C)CC1 [Compound C5, R-(−)-Terpinen-4-ol]
Contact Toxicity LD50 (95% FL) [1]: 19.64 (18.42–21.45) µg/Adult | Contact Toxicity LD90 (95% FL) [1]: 24.82 (22.64–29.63) µg/Adult | Fumigant LC50 reported in 7-day exposure assays [8]: 4.79 mg/L | LC50 [6, 10]: 4.03 µg/mL and 26.1 µM | EC90 [6, 11]: 6.13 µg/mL and 39.8 µM | LC50 [6, 12]: 4.03 µg/mL

Cc1ccc(C(C)C)cc1 [Compound C12, p-Cymene]
LC50 in vapor-phase assays without physical barriers [8]: 23.3 mg/L (≈ 174 µM) | LC50 [6, 10]: 28.7 µg/mL and 214 µM | EC90 [6, 11]: 47 µg/mL and 350 µM

CC1=CC=C(C(C)C)CC1 [Compound C13, α-Terpinene]
LC50 in vapor-phase assays without physical barriers [8]: 56.2 mg/L (≈ 413 µM) | LC50 [6, 10]: 60.2 µg/mL and 442 µM | EC90 [6, 11]: 96.2 µg/mL and 706 µM

CC1=CC[C@H](C(C)C)C=C1 [Compound C14, R-(−)-α-Phellandrene]
LC50 in vapor-phase assays without physical barriers [8]: 72.7 mg/L (≈ 534 µM) | Fumigant Toxicity LC50 (95% FL) ([6]; S. zeamais adults, 24 h after exposure): 88.87 (69.70–108.27) mg L^−1 | LC50 ([6]; read-out: Fumigant Toxicity LC50 (95% FL), S. zeamais adults, 24 h after exposure): 652 µM

CC1=CCC2CC1C2(C)C (stereo not drawn) [Compound C19, α-Pinene]
LC50 in vapor-phase assays without physical barriers [8]: 120 µL/L | LC50 [6, 10]: 110 µg/mL and 810 µM | EC90 [6, 11]: 179 µg/mL and 1.31 mM
